Series [1] concerns dopaminergic agonist action at the central level. Description: Stereotype behavior. The note with it: male rats, intraperitoneal, 50 mg/kg. The format is in vivo, rat. The method, then:
The tests were carried out on groups of 5 male rats weighing 150 to 180 g and each animal was placed individually in a barred cage (29×25×17 cm) containing a few wood shavings. The test product was administered intraperitoneally and the behavior of the animals was noted every half-hour for 5 hours with the rating of Halliwell et al [Brit. J. Pharmacol. 1964, Vol. 23, 330-350]. The animal was asleep (0), it was awake but immobile (1), it turned in the cage (2), it sniffed the cover (3), it licks the walls (4), it touched the wood shavings or the bars of the cage with its teeth (5), it bit the shavings or the bars of the cage (6).

Another series relates to arterial pressure. Description: Hypotensive activity (arterial pressure, anesthetized rats). Format: in vivo, rat (WISTAR). The note with it: male WISTAR rats anesthetized with nembutal, intravenous, 1 mg/kg. The method, then: The hypotensive activity was studied on male rats of the WISTAR strain weighing about 300 g and anesthetized with nembutal (50 mg/kg by intraperitoneal route). The product tested was administered intravenously into the jugular vein and the carotidien arterial pressure was measured before and after administration of the product tested.

The subject of series [2] is average arterial pressure. Description: Test for direct vasodilatory activity of vascular relaxing postsynaptic activity (demedullated rats, angiotensine II). The format is in vivo, rat (Sprague-Dawley). The method, then: D. Test for Direct Vasodilatary Activity of Vascular Relaxing Postsynaptic-activity
Rats of the Sprague-Dawley strain weighing 320-350 g were anesthetized with pentobarbital (50 mg/kg by intraperitoneal injection) and after the positioning of a carotidien catheter to measure the arterial pressure and a jugular catheter for the injection of the test compounds and possible antagonists, the animals were demedullated with a steel rod. This rod was introduced by the right orbital orifice and descended the length of the spinal cord. The animals were then immediately placed under assisted respiration and a few minutes after the arterial pressure was stabilized, the animals received an intravenous perfusion of angiotensine II of […] to increase their average pressure by about 100 mm of mercury. After a plateau was reached, the test substance was injected intravenously every 2 minutes and in cumulated doses. The percentage drop in the average arterial pressure obtained enabled a dose-response curve to be traced reflecting the vasodilatary activity of the compound studied. The preliminary treatment of the animals with different antagonists enabled the mechanism of action of the compound to be determined. The products were tested between 0.001 and 1 mg/kg and Domperidone and propanolol were used as antagonists.

Another series concerns mice. In words: Acute toxicity. Format: in vivo. The note with it: oral administration. How it is done:
The lethal doses LD50 of the different compounds tested were evaluated after oral administration to mice and LD0 is the maximum dose not causing any mortality in 8 days.

Series [3] concerns dopaminergic stimulating activity at the central level. In words: Rotation behavior after unilateral lesion of the nigra-striated bundle by 6-hydroxydopamine. The note with it: male rats, intraperitoneal, 5 mg/kg. The format is in vivo, rat. How it is done: A. Rotation behavior after unilateral lesion of the nigra-striated bundle by 6-hydroxydopamine
Male rats weighing about 220 g were injured in the nigra-striated dopaminergic bundle by Ungerstedt's method [Acta physiol. Scand. 1971, Vol. 82 suppl. p. 367-69 93] modified by unilateral injection of 9.2 μg of 6-hydroxydopamine hydrochloride in solution in 4 μl of physiological solution containing 0.5 mg/ml of ascorbic acid. The test products were administered intraperitoneally and the animals treated, on average 6, were placed individually in a rotometer which enabled the counting of the number of rotations carried out by each animal in the opposite direction to the injured side.

The subject of series [4] is pressure responses to the electrical stimulation. Description: Presynaptic activity at the vascular level. The format is in vivo, rat (Sprague-Dawley). The note with it: demedullated Sprague-Dawley rats. How it is done: F. Presynaptic activity at the vascular level
Rats of Sprague-Dawley strain weighing 320-350 g were anesthetized with pentobarbital (50 mg/kg by intraperitoneal injection) and after insertion of a carotidien catheter to measure the arterial pressure and a jugular catheter for the injection of the test compounds, the animals were demedullated with a stainless steel rod introduced by the right orbitary orifice. This rod was insulated along its length with the exception of the last five centimeters. As soon as the medulla was destroyed, the animals were placed under assisted respiration. After a period of rest of about 20 minutes, the animals were submitted to electrical stimulations applied between the demedullation rod and a neutral electrode placed under the skin in the thigh region with impulses of 2 msec., frequency of 10 Hz and amplitude of about 20 V for 30 sec. for 5 minutes each. […] The addition of appropriate blockers and the combination of this technique with the modification of dose-response curves to vasoconstricting agents such as noradrenaline enabled the pharmacological profile of the test compound to be determined.

Series [5] relates to force of cardiac contraction. In words: Positive inotropic activity. The note with it: 10 to 100 mg/kg. The format is in vivo, rat (Sprague-Dawley). The method, then:
E. Positive inotropic activity
Rats of Sprague-Dawley strain weighing 300 to 350 g were anesthetized with pentobarbital (50 mg/kg by intraperitoneal injection) and a catheter was placed in the left ventricle to measure the cardiac intraventricular pressure and the dP/dt VG (or rate of variation of the intraventricular pressure). A second arterial catheter placed in the femoral artery enabled the systemic arterial pressure and the cardiac frequency to be registered. The test products and the possible antagonists were injected by a catheter placed in a jugular vein. This model enabled the effect of various substances on the force of cardiac contraction to be evaluated in vivo as a function of the dose and the time.

Where [6] appears, read: anesthetized Sprague-Dawley rats, jugular vein.

Turning to `Br.O=C1Cc2c(C3CCCNC3)ccc(O)c2N1` (stereo not shown) [Example 3, 1,3-dihydro-7-hydroxy-4-(3-piperidinyl)-2H-indol-2-one hydrobromide], the “central dopaminergic agonist action (conclusion from stereotype test)” value in series [1] is recorded as “substantially deprived of dopaminergic agonist action at the central level”. Moreover, the stereotype movements entry in series [1] (noted every half-hour for 5 hours) is reported as “practically no stereotype movements”. For the same compound, the “effect on carotidien arterial pressure” value in the series with arterial pressure is on record as “slight effect on the arterial pressure”. Moreover, the “origin of the vasodilator effect (mechanism)” value in series [2] (Domperidone and propanolol used as antagonists) was “of dopaminergic and α-adrenergic origin”. Besides, in series [2] (Rattus norvegicus, demedullated Sprague-Dawley rats, angiotensine II perfusion, intravenous cumulated doses, tested between 0.001 and 1 mg/kg, read-out: dose from which a dose dependent vasodilator effect occurs), the minimal effective dose is ≥ 1 µg/kg. For the same compound, the “LD0 (maximum dose not causing any mortality in 8 days)” value in the series with mice stood at 400 mg/kg. In series [3], the “central dopaminergic stimulating activity (conclusion from rotation test)” value was “substantially deprived of dopaminergic stimulating activity at the central level”. The “rotations in the opposite direction to the injured side” value in series [3] (at least ninety minutes) was “practically no rotations”. In addition, the “site of action linked to the reduction of the responses” value in series [4] is given as “essentially post-synaptic activity”. In addition, the “pressure responses to the electrical stimulation” value in series [4] (intravenous) was “reduction of the responses”. Moreover, in series [4] (with sulpiride), the “blockade by sulpiride of the reduction of the responses” value is given as “not blocked by sulpiride”. Besides, in series [5], the “positive inotropic effect (conclusion)” value was “possessed positive inotropic properties”. Further, in series [5] (with propanolol), the “blockade by propanolol of the increase of dP/dt and maximal ventricular pressure” value is given as “not otherwise blocked by propanolol”. In addition, in series [5] (setting [6]), the “dP/dt (rate of variation of the intraventricular pressure)” value was “increase of the dP/dt”; the maximal ventricular pressure result was “increase of the dP/dt and of the maximal ventricular pressure”.

Regarding `Br.CCCN1CCCC(c2ccc(O)c3c2CC(=O)N3)C1` (stereo not shown) [Example 4, 1,3-dihydro-7-hydroxy-4-(1-propyl-3-piperidinyl)-2H-indol-2-one hydrobromide], the “LD0 (maximum dose not causing any mortality in 8 days)” value in the series on mice came to 400 mg/kg.

The values above are taken from US4694011A, “Novel 7-hydroxy-indoles” (Roussel Uclaf, priority 1985, dated 1987).
